# Measurements reported in PMC7024391, “Trypanocidal Activity of Flavanone Derivatives” (Molecules, 2020).
# Key:
# L929 cells = test: In vitro cytotoxic test on uninfected L-929 cells (alamarBlue); format: cell-based, mouse; conditions: CC50 L929 / IC50 T. cruzi
# Method: (§1) The active compounds were tested in vitro for determination of cellular toxicity against uninfected L-929 cells using the alamarBlue® dye. The cells were exposed to compounds at increasing concentrations starting at IC50 value for T. cruzi. After 96 h of incubation with the tested compounds, the alamarBlue® was added and the absorbance at 570 and 600 nm measured after 4–6 h. The cell viability was expressed as the percentage of difference in the reduction between treated and untreated cells. IC50 values were calculated by linear interpolation, and the selectivity index (SI) was determined based on the ratio of the IC50 value in the host cell divided by the IC50 value of the parasite. Quadruplicates were run in the same plate, and the experiments were repeated at least once.
# [1] = as above; format: cell-based, mouse; conditions: mouse, uninfected L-929 cells; mammalian L929 cells, 96 h, alamarBlue; ± 2.0; read-out: Cytotoxicity CC50(μM) ± 2.0
# Method: as §1
# [2] = test system: Trypanosoma cruzi (amastigotes and trypomastigotes), Tulahuen strain; test: Anti-Trypanosoma cruzi activity assay (amastigotes and trypomastigotes) in infected L929 cells, beta-galactosidase reporter; format: cell-based; conditions: 96 h incubation; for IC50: Trypanosoma cruzi, ± 0.2, read-out: Trypanocide IC50(μM) ± 0.2
# Method: Flavanone derivatives were evaluated for anti-T. cruzi activity against the intracellular forms of the parasite. Although the use of epimastigotes present in the midgut vector may be utilized for initial screening, we have instead opted for the simultaneous use of trypomastigote and intracellular amastigotes forms that are present during both acute and chronic phases of the disease. This approach is in accordance with the Drugs for Neglected Diseases Initiative guidelines (DNDi). Moreover, it also has the advantage of evaluating bioactive compounds in infected cells while at the same time monitoring their effects on both the relevant forms of the parasite in the same system. Benznidazole was used as a positive control against T. cruzi and cytotoxicity was determined in mammalian L929 cells (Table 1). The bioavailability profile of the flavanones was evaluated by applying the Lipinski rule and data related to the risk of toxicity (mutagenicity, tumorigenicity, irritability, and effects on the reproductive system) carried out through online programs “Molinspiration” and “OSIRIS property explorer” (Table 1). […] Nevertheless, this preliminary result motivated us to investigate other analogs bearing substituents in order to improve potency and selectivity. […] Moreover, the selectivity of 2d was almost 4 times greater than 2a. The importance of methoxy substituents for trypanocidal activity has been noted in other studies. […] These compounds resembled more closely the chemical structure of the trypanocidal natural product (brevifolin carboxylate) that these structures were based on. Some enhancement in the trypanocidal activity of hybrid coumarin-chalcone compounds was also noted when the methoxy groups were introduced into either the 2 or 5 positions of the benzene ring. The inclusion of a pyridine moiety in compound 2e was supported by previous reports describing the anti-T. cruzi activity of 2-pyridyl derivatives and their capacity to inhibit cruzain catalytic activity. […] No improvements in anti-T. cruzi activity were also observed for flavanones substituted at the benzoyl moiety (2g–2o and 2v–2x). […] The physicochemical drug descriptors of the molecular properties for the synthesized compounds were calculated by Molinspiration software (Table 1). The majority of the tested compounds satisfy the Lipinski rule with no violations and therefore displaying potentially good bioavailability. There were no linear correlations observed between molecular hydrophobicity and bioactivity.
# The in vitro anti-T. cruzi activity was evaluated on L929 cells (mouse fibroblasts) infected with Tulahuen strain of the parasite expressing the Escherichia coli β-galactosidase as reporter gene. Briefly, for the bioassay, 4000 L929 cells were added to each well of a 96-well microtiter plate. After an overnight incubation, 40,000 trypomastigotes were added to the cells and incubated for 2 h. Then, the medium containing extracellular parasites were replaced with 200 μL of fresh medium and the plate was incubated for an additional 48 h to establish the infection. For IC50 determination, the cells were exposed to each synthesized compound at serial decreasing dilutions and the plate was incubated for 96 h. After this period, 50 μL of 500 μM chlorophenol red beta-D-galactopyranoside (CPRG) in 0.5% Nonidet P40 was added to each well, and the plate was incubated for 16–20 h, after which the absorbance at 570 nm was measured. Controls with uninfected cells, untreated infected cells, infected cells treated with Benznidazole at 3.8 μM (positive control) or DMSO 1% were used. The results were expressed as the percentage of T. cruzi growth inhibition in compound-tested cells as compared to the infected cells and untreated cells. The IC50 values were calculated by linear interpolation. Quadruplicates were run in the same plate, and the experiments were repeated at least once.
smiles,measurement,setting,value
"CCC1(C(=O)c2ccccc2)C(=O)c2ccccc2OC1c1ccccc1 (stereo not drawn) [Compound 4, 3-Benzoyl-3-ethyl-2-phenylchroman-4-one]",SI (selectivity index calculated from CC50/IC50),L929 cells,34.03
same,CC50 at 96 h,[1],449 µM
same,IC50,[2],13.2 µM
"O=C(c1ccc(Cl)cc1)[C@@H]1C(=O)c2ccccc2O[C@H]1c1ccccc1 (relative stereo) [Compound 2k, trans-3-(4-chlorobenzoyl)-2-phenylchroman-4-one]",SI (selectivity index calculated from CC50/IC50),L929 cells,3.8
same,CC50 at 96 h,[1],110 µM
same,IC50,[2],29.3 µM
"O=C(c1ccccc1)[C@@H]1C(=O)c2ccccc2O[C@H]1c1ccccc1 (relative stereo) [Compound 2a, trans-3-benzoyl-2-phenylchroman-4-one]",SI (selectivity index calculated from CC50/IC50),L929 cells,9.1
same,CC50 at 96 h,[1],80 µM
same,IC50,[2],8.8 µM
"COc1ccc([C@@H]2Oc3ccccc3C(=O)[C@H]2C(=O)c2ccccc2)cc1 (relative stereo) [Compound 2d, trans-3-benzoyl-2-(4-methoxyphenyl)chroman-4-one]",SI (selectivity index calculated from CC50/IC50),L929 cells,38.5
same,CC50 at 96 h,[1],223 µM
same,IC50,[2],5.8 µM
"O=C(c1ccccc1)[C@@H]1C(=O)c2ccccc2O[C@H]1c1ccco1 (relative stereo) [Compound 2y, trans-3-benzoyl-2-(furan-2-yl)chroman-4-one]",SI (selectivity index calculated from CC50/IC50),L929 cells,4.4
same,CC50 at 96 h,[1],503 µM
same,IC50,[2],114 µM
"Cc1ccc(C(=O)[C@@H]2C(=O)c3ccccc3O[C@H]2c2ccccc2Cl)cc1 (relative stereo) [Compound 2j, trans-2-(2-chlorophenyl)-3-(4-methylbenzoyl)chroman-4-one]",SI (selectivity index calculated from CC50/IC50),L929 cells,1
same,CC50 at 96 h,[1],62.5 µM
same,IC50,[2],63 µM
"COc1ccc([C@@H]2Oc3ccc(OC)cc3C(=O)[C@H]2C(=O)c2ccccc2)cc1 (relative stereo) [Compound 2q, trans-3-benzoyl-6-methoxy-2-(4-methoxyphenyl)chroman-4-one]",SI (selectivity index calculated from CC50/IC50),L929 cells,1.4
same,CC50 at 96 h,[1],206 µM
same,IC50,[2],141 µM
"COc1ccc2c(c1)C(=O)[C@@H](C(=O)c1ccccc1)[C@H](c1ccccc1)O2 (relative stereo) [Compound 2p, trans-3-benzoyl-6-methoxy-2-phenylchroman-4-one]",Trypanocide IC50(μM) ± 0.2,[2],Inactive
"C[C@@H]1Oc2ccccc2C(=O)[C@H]1C(=O)c1ccccc1 (relative stereo) [Compound 3, trans-3-benzoyl-2-methylchroman-4-one]",Trypanocide IC50(μM) ± 0.2,[2],completely inactive
"O=C(c1ccco1)[C@@H]1C(=O)c2ccccc2O[C@H]1c1ccccc1 (relative stereo) [Compound 2v, trans-3-(furan-2-carbonyl)-2-phenylchroman-4-one]",Trypanocide IC50(μM) ± 0.2,[2],Inactive
"O=C(Cn1ccnc1[N+](=O)[O-])NCc1ccccc1 [Bnz, Benznidazole, reference compound]",SI (selectivity index calculated from CC50/IC50),L929 cells,625
same,IC50,[2],3.8 µM
"COc1ccc(C(=O)[C@@H]2C(=O)c3ccccc3O[C@H]2c2ccc(F)cc2)cc1 (relative stereo) [Compound 2n, trans-2-(4-fluorophenyl)-3-(4-methoxybenzoyl)chroman-4-one]",IC50,[2],213 µM
"O=C(c1ccco1)[C@@H]1C(=O)c2ccccc2O[C@H]1c1ccc(F)cc1 (relative stereo) [Compound 2x, trans-2-(4-fluorophenyl)-3-(furan-2-carbonyl)chroman-4-one]",Trypanocide IC50(μM) ± 0.2,[2],Inactive
"Cc1ccc(C(=O)[C@@H]2C(=O)c3ccccc3O[C@H]2c2ccccc2)cc1 (relative stereo) [Compound 2g, trans-3-(4-methylbenzoyl)-2-phenylchroman-4-one]",Trypanocide IC50(μM) ± 0.2,[2],Inactive
"COc1ccc([C@@H]2Oc3ccccc3C(=O)[C@H]2C(=O)c2ccco2)cc1 (relative stereo) [Compound 2w, trans-3-(furan-2-carbonyl)-2-(4-methoxyphenyl)chroman-4-one]",Trypanocide IC50(μM) ± 0.2,[2],Inactive
